The term IC50 denotes the concentration that inhibits the measured activity by half. In general, inhibition refers to how much of the control response was suppressed.

Structures can show the parent of a compound that is named as a salt.

These results are taken from US8927579B2, “Male contraceptive” (priority 2007, dated 2015).

In assay [1] the test system is circular muscle of human vas deferens. Description: IC50 against contractions evoked by high K+ (120 mM) in the presence of FPL 64176, circular muscle rings. Conditions: Homo sapiens; contractions evoked by K+ (120 mM) in the presence of FPL 64176 (1 μM); means ± S.E.M. An excerpt:
(§1) Human vas deferens specimens were obtained after elective vasectomies of healthy fertile men. College ethical approval and the consent of patients were obtained. The specimens were placed in ice-cold Krebs' medium, dissected-free of connective tissue/blood vessels and cut longitudinally into strips (longitudinal muscle preparations; 5-10 mm long & 1 mm wide) or transversely into rings (circular muscle preparations; 3 mm in length). The longitudinal and circular muscle preparations were then set up for tension recording (resting tension 5-7 mN) in a Perspex chamber superfused at 2 ml per min with Krebs' medium (36° C.) composed of (mM): NaCl, 118.8; NaHCO3, 25; KCl, 4.7; CaCl2.2H2O, 2.5; KH2PO4, 1.2; MgSO4.7H2O, 1.2; glucose, 11.1; ascorbic acid 0.1 and continuously gassed with 95% O2 and 5% CO2. Contractile responses were recorded via a Harvard-type force-displacement transducer. The analog signals were digitised using CIO-Das 16/Jr data acquisition software (Amplicon Liveline, Brighton, UK) and re-plotted on a microcomputer.
(§2) Tissues were equilibrated for 180 min in Krebs' medium containing inhibitors of extraneuronal and neuronal reuptake of noradrenaline, oestradiol (1 μM) and desipramine (0.1 μM) respectively, inhibitors of catechol-O-methyltransferase and monoamine oxidase, tropolone (10 μM) and iproniazid (10 μM) respectively and the β-adrenoceptor blocker, propranolol (1 μM). At the end of the equilibration period, the tissues were stimulated with noradrenaline (100 μM). […] After a contact time of 30-40 min in this medium, different experimental protocols (described below) were adopted in order to • (a) Elucidate the contractile actions of L-type Ca^2+ agonists such as FPL 64176 or Bay K 8644. In these experiments, tissues were exposed to FPL 64176 (0.1-10 μM added cumulatively) or in separate experiments Bay K 8644 (0.1-10 μM added cumulatively). • (b) Investigate the effects of various diphenylalkylamines and conventional L-type Ca^2+ antagonists (methoxyverapamil or nifedipine) on contractions evoked by high concentrations of extracellular potassium (high [K^+]o) in the presence of L-type Ca^2+ agonists, FPL 64176 (1 μM) or Bay K 8644 (1 μM). In this protocol, tissues were stimulated with high [K^+]O (10, 30 and 120 mM at 10-15 min intervals) in normal Krebs' medium, then exposed to L-type Ca^2+ agonists for 20-30 min and subsequently stimulated with high [K^+]O (10, 30 and 120 mM) in the presence of the drugs. These provided the initial responses. Following this and in the continuous presence of the L-type Ca^2+ agonists, the tissues were exposed additionally to L-type Ca^2+ antagonists (conventional or diphenylalkylamines) or drug-free vehicle medium. After contact times of 25-50 min the tissues were stimulated, first with high [K^+]O (either 30 mM or 120 mM) in order to take account of the well-documented use-dependent action of the diphenylalkylamine Ca^2+ antagonists. Following recovery from the test contraction and after a further 30-40 min, the tissues were then stimulated with high [K^+]o (10, 30 and 120 mM). This protocol is illustrated in FIGS. 3 and 4. The resulting contractions were measured (see below) and expressed as a percentage of corresponding initial responses to high [K^+]o evoked in the presence of L-type Ca^2+ agonists (i.e. before exposure to L-type Ca^2+ antagonists). […] Subsequent analysis (see below) was between contractions of drug-treated tissues and time-matched controls • (c) Determine the inhibitory potencies (IC50 values) of various diphenylalkylamines and phenothiazines and conventional L-type Ca^2+ antagonists (nifedipine and methoxyverapamil) against contractions evoked in longitudinal and circular muscle of human vas deferens by high [K^+]o (120 mM) in the presence of FPL 64176. In these experiments, tissues were stimulated with high [K^+]o (120 mM); sequentially in normal Krebs' medium and after 25-30 min exposure to the L-type Ca^2+ agonist, FPL 64176, (1 μM, Initial response). […]

The test system of assay [2] is longitudinal muscle of human vas deferens. Nature of the assay: Inhibition of contractions evoked by high K+ in the presence of Bay K 8644, longitudinal muscle. Conditions: [K+]o 30 mM & 120 mM in the presence of Bay K 8644 (1 μM). On the procedure:
(§3) Human vas deferens specimens were obtained after elective vasectomies of healthy fertile men. College ethical approval and the consent of patients were obtained. The specimens were placed in ice-cold Krebs' medium, dissected-free of connective tissue/blood vessels and cut longitudinally into strips (longitudinal muscle preparations; 5-10 mm long & 1 mm wide) or transversely into rings (circular muscle preparations; 3 mm in length). […] Contractile responses were recorded via a Harvard-type force-displacement transducer. […]
(§4) Tissues were equilibrated for 180 min in Krebs' medium containing inhibitors of extraneuronal and neuronal reuptake of noradrenaline, oestradiol (1 μM) and desipramine (0.1 μM) respectively, inhibitors of catechol-O-methyltransferase and monoamine oxidase, tropolone (10 μM) and iproniazid (10 μM) respectively and the β-adrenoceptor blocker, propranolol (1 μM). […] The resulting contractions were measured (see below) and expressed as a percentage of corresponding initial responses to high [K^+]o evoked in the presence of L-type Ca^2+ agonists (i.e. before exposure to L-type Ca^2+ antagonists). […]

The test system is the same in assay [3]. Description: IC50 against contractions evoked by high K+ (120 mM) in the presence of FPL 64176, longitudinal muscle strips. The note with it: Homo sapiens; contractions evoked by K+ (120 mM) in the presence of FPL 64176 (1 μM); means ± S.E.M.
Source text: as §1, §2

The subject of assay [4] is circular muscle of human vas deferens. Nature of the assay: Inhibition of contractions evoked by high K+ in the presence of Bay K 8644, circular muscle. Conditions: [K+]o 30 mM & 120 mM in the presence of Bay K 8644 (1 μM). On the procedure:
as §3, §4

The test system is the same in assay [5]. Description: Inhibition at fixed concentration of contractions evoked by high K+ in the presence of FPL 64176, circular muscle. The note with it: [K+]o 30 mM in the presence of FPL 64176 (1.0 μM); drug 10 μM; hydrochloride.
Source text: as §1
Tissues were equilibrated for 180 min in Krebs' medium containing inhibitors of extraneuronal and neuronal reuptake of noradrenaline, oestradiol (1 μM) and desipramine (0.1 μM) respectively, inhibitors of catechol-O-methyltransferase and monoamine oxidase, tropolone (10 μM) and iproniazid (10 μM) respectively and the β-adrenoceptor blocker, propranolol (1 μM). At the end of the equilibration period, the tissues were stimulated with noradrenaline (100 μM). […] After a contact time of 30-40 min in this medium, different experimental protocols (described below) were adopted in order to • (a) Elucidate the contractile actions of L-type Ca^2+ agonists such as FPL 64176 or Bay K 8644. In these experiments, tissues were exposed to FPL 64176 (0.1-10 μM added cumulatively) or in separate experiments Bay K 8644 (0.1-10 μM added cumulatively). • (b) Investigate the effects of various diphenylalkylamines and conventional L-type Ca^2+ antagonists (methoxyverapamil or nifedipine) on contractions evoked by high concentrations of extracellular potassium (high [K^+]o) in the presence of L-type Ca^2+ agonists, FPL 64176 (1 μM) or Bay K 8644 (1 μM). In this protocol, tissues were stimulated with high [K^+]O (10, 30 and 120 mM at 10-15 min intervals) in normal Krebs' medium, then exposed to L-type Ca^2+ agonists for 20-30 min and subsequently stimulated with high [K^+]O (10, 30 and 120 mM) in the presence of the drugs. These provided the initial responses. Following this and in the continuous presence of the L-type Ca^2+ agonists, the tissues were exposed additionally to L-type Ca^2+ antagonists (conventional or diphenylalkylamines) or drug-free vehicle medium. After contact times of 25-50 min the tissues were stimulated, first with high [K^+]O (either 30 mM or 120 mM) in order to take account of the well-documented use-dependent action of the diphenylalkylamine Ca^2+ antagonists. Following recovery from the test contraction and after a further 30-40 min, the tissues were then stimulated with high [K^+]o (10, 30 and 120 mM). This protocol is illustrated in FIGS. 3 and 4. The resulting contractions were measured (see below) and expressed as a percentage of corresponding initial responses to high [K^+]o evoked in the presence of L-type Ca^2+ agonists (i.e. before exposure to L-type Ca^2+ antagonists). […]

For assay [6], the system named is sperm emission in patients. Conditions: clinical studies; cited from earlier work.

With `COC(=O)C1=C(C)NC(C)=C(C(=O)OC)C1c1ccccc1[N+](=O)[O-]` [Nifedipine, nifedipine], the half-inhibitory concentration (IC50) was determined as 0.00219 ± 0.0005 µM in assay [1] and 0.00216 ± 0.0008 µM in assay [3]. Besides, the inhibition at 1 µM in assay [2] (Homo sapiens, drug 1 μM, read-out: inhibition of longitudinal muscle contractions relative to time-matched controls) lay within 66 to 73%; in assay [4] (Homo sapiens, drug 1 μM, read-out: inhibition of circular muscle contractions relative to time-matched controls), 66 to 73%.
For the molecule `CC(NCCC(c1ccccc1)c1ccccc1)c1ccccc1` (stereo not drawn) [Fendiline, fendiline hydrochloride], the IC50 in assay [1] worked out at 17.4 ± 5.8 µM; in assay [3] it was 3.8 ± 0.9 µM. For the same molecule, the “inhibition of circular muscle contractions compared to time-matched controls” value in assay [5] was 35%. Moreover, the “inhibition of longitudinal muscle contractions relative to time-matched controls” value in assay [2] (drug 10 μM) is listed as 73-80%. For the same molecule, the “inhibition of circular muscle contractions relative to time-matched controls” value in assay [4] (drug 10 μM) is 0-20%.
As to `CN1CCN(CCCN2c3ccccc3Sc3ccc(C(F)(F)F)cc32)CC1` [Trifluoperazine, trifluoperazine dihydrochloride], the values for the concentration for half-maximal inhibition (IC50) in assay [1] and in assay [3] were 10.2 ± 3 µM and 20.7 ± 5.4 µM, respectively. In assay [6], the “effect on sperm emission (contraceptive side effect)” value is “lack the contraceptive side-effect”.
